# Data from US8889377B2, “GPCR comprising an IC2 insertion” (ConfometRx, Inc., priority 2010, dated 2014).
# Tested on: mGluR5 and Rock10 (mGluR5-T4 lysozyme fusion protein of FIG. 3)
# Experiment: 3H-MPEP ligand binding in membranes of transfected HEK293 cells
# Parameters: species or system human
# Details: HEK293 cell membranes; ^3H-MPEP radioligand; wild-type mGluR5 vs fusion protein Rock10 (FIG. 6)
# Procedure: HEK293 cells were cultured on plastic dishes at 37° C. with 5% CO2 in Dulbecco's modified Eagle's medium (Cellgro) with 5% fetal bovine serum. For an individual expression experiment, cells at confluency were split, and approximately 100,000 cells were used to seed glass cover slips in the same medium. After 2 d, cells are transfected with the addition of 1 μg of a given pCDNA3-receptor plasmid and 3 μl of Fugene 6 reagent (Roche). 48 h after transfection, cells were harvested and membranes prepared for ligand binding analysis. ^3H-MPEP (a negative allosteric modulator that binds to the transmembrane domains of mGluR5) was used to detect functional mGluR5 in HEK293 cell membranes (see FIG. 6).
smiles,measurement,value
Cc1cccc(C#Cc2ccccc2)n1 [MPEP],affinity of MPEP for mGluR5 compared with Rock10,same affinity for mGluR5 as Rock10
